Test results taken from US12454531B2, “Substituted piperazine derivatives useful as T cell activators” (BRISTOL-MYERS SQUIBB COMPANY, priority 2019, dated 2025).
Like-named read-outs stand apart in the source and are kept apart here.

Assays:
DGKζ = DGKζ (Homo sapiens (Human), UniProt Q13574); assay: Assay 1 or 2: In Vitro DGK Inhibition Assays (DGKζ LIPGLO, extruded liposome); type: biochemical; conditions: extruded liposome substrate, 150 μM ATP
Description: Assay 1: In Vitro DGK Inhibition Assays—Method A
The DGKα and DGKζ reactions were performed using either extruded liposome (DGKα and DGKζ LIPGLO assays) or detergent/lipid micelle substrate (DGKα and DGKζ assays). The reactions were carried out in 50 mM MOPS pH 7.5, 100 mM NaCl, 10 mM MgCl2, 1 μM CaCl2), and 1 mM DTT (assay buffer). The reactions using a detergent/lipid micelle substrate also contained 50 mM octyl B-D-glucopyranoside. The lipid substrate concentrations were 11 mM PS and 1 mM DAG for the detergent/lipid micelle reactions. The lipid substrate concentrations were 2 mM PS, 0.25 mM DAG, and 2.75 mM PC for the extruded liposome reactions. The reactions were carried out in 150 μM ATP. The enzyme concentrations for the DGKα and DGKζ were 5 nM
The compound inhibition studies were carried out as follows: 50 nL droplets of each test compound (top concentration 10 mM with 11 point, 3-fold dilution series for each compound) solubilized in DMSO were transferred to wells of a white 1536 well plate (Corning 3725). A 5 mL enzyme/substrate solution at 2× final reaction concentration was prepared by combining 2.5 mL 4× enzyme solution (20 nM DGKα or DGKζ (prepared as described below) in assay buffer) and 2.5 mL of either 4× liposome or 4× detergent/lipid micelle solution (compositions described below) and incubated at room temperature for 10 minutes. Next, 1 μL 2× enzyme/substrate solution was added to wells containing the test compound and reactions were initiated with the addition of 1 μL 300 uM ATP. The reactions were allowed to proceed for 1 hr, after which 2 μL Glo Reagent (Promega V9101) was added and incubated for 40 minutes. Next, 4 μL Kinase Detection Reagent was added and incubated for 30 minutes. Luminescence was recorded using an EnVision microplate reader. […] The compounds were evaluated at 11 concentrations to determine IC50.
The lipid composition was 5 mol % DAG (Avanti 8008110), 40 mol % PS (Avanti 840035P), and 55 mol % PC (Avanti 850457) at a total lipid concentration of 15.2 mg/mL for the 4× liposome solution. The PC, DAG, and PS were dissolved in chloroform, combined, and dried in vacuo to a thin film. The lipids were hydrated to 20 mM in 50 mM MOPS pH 7.5, 100 mM NaCl, 5 mM MgCl2, and were freeze-thawed five times. The lipid suspension was extruded through a 100 nm polycarbonate filter eleven times. […] The liposome preparation was stored at 4° C. for as long as four weeks.
Baculovirus amplification was achieved using infected Sf9 cells at 1:1500 virus/cell ratios, and grown for 65 hours at 27° C. post-transfection.
The cells were lysed using nitrogen cavitation method with a nitrogen bomb (Parr Instruments), and the lysates were clarified by centrifugation. […] The three steps column chromatography included nickel affinity resin capture (i.e. HisTrap FF crude, GE Healthcare), followed by size exclusion chromatography (i.e. HiLoad 26/600 Superdex 200 prep grade, GE Healthcare for DGK-alpha, and HiPrep 26/600 Sephacryl S 300_HR, GE Healthcare for DGK-zeta). The third step was ion exchange chromatography, and differed for the two isoforms. DGKα was polished using Q-Sepharose anion exchange chromatography (GE Healthcare). DGKζ was polished using SP Sepharose cation exchange chromatography (GE Healthcare). The proteins were delivered at concentrations of ≥2 mg/mL. The formulation buffers were identical for both proteins: 50 mM Hepes, pH 7.2, 500 mM NaCl, 10% v/v glycerol, 1 mM TCEP, and 0.5 mM EDTA.
Assay 2: In Vitro DGK Inhibition Assays—Method B
The DGKα and DGKζ reactions were performed using either extruded liposome (DGKα and DGKζ LIPGLO assays) or detergent/lipid micelle substrate (DGKα and DGKζ assays).

Human whole blood pERK = assay: Assay 11: DGK Human Whole Blood pERK Assay; type: cell-based; conditions: anti-CD3 stimulation, pERK positive within CD8 positive population, starting concentration 20 μM, read-out: DGK HWB pERK IC50
Description: Assay 11: DGK Human Whole Blood pERK Assay
Human whole blood ERK phosphorylation assay was performed with human venous whole blood obtained from healthy donors (drawn with Heparin as anti-coagulant). Serial dilutions of compounds (11 points, 3-fold) in DMSO were added to 384 well plates at 20 nL/well using an ECHO 550 acoustic dispenser (Labcyte) to achieve final starting concentration of 20 μM in assay. Heparinized human whole blood was added to the compound plate at 9 μL per well and incubated for one hour at 37° C. in a humidified 95%, air/5% CO2 incubator. After one hour of compound incubation, 1 μL of human anti-CD3 antibody (in-house) in the presence of cross-linking antibody goat anti-mouse IgG (4 μg/mL) was added to the well at 1 μg/mL final concentration for stimulation of pathway and additionally incubated for 15 minutes at 37° C. Stimulation was stopped by adding 90 μL Fix/Lyse buffer (BD 558049). Cells were washed and stained with anti-CD8 PE (BD 555635) antibodies for 60 minutes at room temperature, washed again, and permeabilized on ice using Perm III buffer (BD 558050) for 30 minutes. Cells were then stained with an Alexa Fluor® 647 anti-ERK1/2 Phospho (Thr202/Tyr204) Antibody (Bioleged 675504) for 60 minutes at 1:50 dilution. Samples were washed and resuspended in dPBS containing 1% BSA (dPBS, Gibco 14190136; BSA, Sigma-Aldrich A9205). Samples analyzed using the Intellicyt® iQue Screener PLUS. The pERK activation was quantitated by the percentage of pERK positive population within CD8 positive population.

Chain of DGKζ (Q13574 other isoform, or with tags, fused parts or gaps): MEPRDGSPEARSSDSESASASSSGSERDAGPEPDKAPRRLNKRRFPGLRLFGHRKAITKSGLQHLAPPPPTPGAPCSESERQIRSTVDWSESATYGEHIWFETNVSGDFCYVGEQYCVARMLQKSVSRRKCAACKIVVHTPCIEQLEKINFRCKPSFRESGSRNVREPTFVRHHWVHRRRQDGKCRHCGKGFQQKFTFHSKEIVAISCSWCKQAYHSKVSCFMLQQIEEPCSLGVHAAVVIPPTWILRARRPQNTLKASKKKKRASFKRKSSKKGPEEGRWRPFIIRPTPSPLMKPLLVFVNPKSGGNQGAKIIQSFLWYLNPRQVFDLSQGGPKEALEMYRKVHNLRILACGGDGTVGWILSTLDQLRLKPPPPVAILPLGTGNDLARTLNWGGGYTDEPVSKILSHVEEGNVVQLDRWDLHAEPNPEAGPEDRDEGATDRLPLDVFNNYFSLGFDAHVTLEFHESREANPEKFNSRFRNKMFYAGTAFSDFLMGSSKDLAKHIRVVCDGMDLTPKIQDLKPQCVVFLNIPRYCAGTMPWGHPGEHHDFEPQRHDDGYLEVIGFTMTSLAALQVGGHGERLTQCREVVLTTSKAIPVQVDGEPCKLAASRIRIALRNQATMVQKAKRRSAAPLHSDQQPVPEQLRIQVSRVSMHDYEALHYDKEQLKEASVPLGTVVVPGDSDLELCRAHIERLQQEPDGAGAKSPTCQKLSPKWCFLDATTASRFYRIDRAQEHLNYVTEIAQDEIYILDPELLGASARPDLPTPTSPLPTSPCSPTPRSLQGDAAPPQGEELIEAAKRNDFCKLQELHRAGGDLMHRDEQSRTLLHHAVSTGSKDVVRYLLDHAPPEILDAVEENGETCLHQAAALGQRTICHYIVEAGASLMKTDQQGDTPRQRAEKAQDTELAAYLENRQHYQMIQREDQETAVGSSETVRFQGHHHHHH

| IC50 (DGKζ) | IC50 (Human whole blood pERK; Homo sapiens, CD8 positive) | IC50 (Human whole blood pERK) | SMILES |
| --- | --- | --- | --- |
| 3.29 µM | 5.53 µM |  | CC[C@H]1CN(C(C(=O)N2CCOCC2)c2ccc(C(F)(F)F)cc2)[C@H](CC)CN1c1nc(=O)n(C)c2ccc(C#N)nc12 (single isomer, unassigned) [Example 53] |
| 0.1 µM | 0.3 µM |  | CC[C@H]1CN(C(C(=O)NCCOC)c2ccc(C(F)(F)F)cc2)[C@H](CC)CN1c1nc(=O)n(C)c2ccc(C#N)nc12 (single isomer, unassigned) [Example 56] |
| 0.58 µM |  | 3.51 µM | CC[C@H]1CN(C(C(=O)N2CCOCC2)c2ccc(C(F)(F)F)cc2)[C@H](CC)CN1c1nc(=O)n(C)c2ccc(C#N)nc12 (single isomer, unassigned) [Example 54] |
